Results from ChEMBL document CHEMBL3885881, “DrugMatrix”.

Species: Rattus norvegicus
Test: DrugMatrix - Regimen: Daily Repeat
Format: toxicity, organism-based, Sprague-Dawley
Parameters: regimen Daily Repeat, gender Male, age 6-8 weeks
Settings: in vivo, po, 750 mg/kg, route oral GAVAGE, dose level High, vehicle .5 % CMC; for BASOPHIL / EOSINOPHIL / ERYTHROCYTE COUNT / HEMATOCRIT / HEMOGLOBIN / LEUKOCYTE COUNT / LYMPHOCYTE / MEAN CORPUSCULAR HEMOGLOBIN / MEAN CORPUSCULAR HEMOGLOBIN CONCENTRATION / MEAN CORPUSCULAR VOLUME / MONOCYTE / NEUTROPHIL / PLATELET COUNT: tissue Blood; for ALANINE AMINOTRANSFERASE / ALBUMIN / ALKALINE PHOSPHATASE / ASPARTATE AMINOTRANSFERASE / BLOOD UREA NITROGEN / CARBON DIOXIDE / CHLORIDE / CHOLESTEROL / CREATINE PHOSPHOKINASE / CREATININE / GLUCOSE / LACTATE DEHYDROGENASE / LIPASE / PHOSPHORUS / POTASSIUM / SODIUM / TOTAL BILIRUBIN / TOTAL PROTEIN / URIC ACID: tissue Plasma

With `Cc1ccc([N+](=O)[O-])cc1` [4-NITROTOLUENE] the BASOPHIL (96 h, time 4 day) was 0.3%, the EOSINOPHIL (96 h, time 4 day) was 0.63% and the “ERYTHROCYTE COUNT” value (96 h, time 4 day) was 6.55 x10E6/uL. The HEMATOCRIT (96 h, time 4 day) was 41.57%, the HEMOGLOBIN (96 h, time 4 day) was 12.83 G/DL and the “LEUKOCYTE COUNT” value (96 h, time 4 day) was 12.7 x10E3/uL. The LYMPHOCYTE (96 h, time 4 day) was 82.73%, the “MEAN CORPUSCULAR HEMOGLOBIN” value (96 h, time 4 day) was 19.6 pg and the “MEAN CORPUSCULAR HEMOGLOBIN CONCENTRATION” value (96 h, time 4 day) was 30.9 G/DL. The “MEAN CORPUSCULAR VOLUME” value (96 h, time 4 day) was 63.5 fL, the MONOCYTE (96 h, time 4 day) was 1.93% and the NEUTROPHIL (96 h, time 4 day) was 13.9%. The “PLATELET COUNT” value (96 h, time 4 day) was 1261.33 x10E3/uL, the “ALANINE AMINOTRANSFERASE” value (96 h, time 4 day) was 28.33 u/L and the ALBUMIN (96 h, time 4 day) was 3.93 G/DL. For the same compound, the “ALKALINE PHOSPHATASE” value (96 h, time 4 day) was 300 u/L, the “ASPARTATE AMINOTRANSFERASE” value (96 h, time 4 day) was 82.67 u/L and the “BLOOD UREA NITROGEN” value (96 h, time 4 day) was 18.67 mg/dL. The “CARBON DIOXIDE” value (96 h, time 4 day) was 25.33 mmol/L, the CHLORIDE (96 h, time 4 day) was 106 MEQ/L and the CHOLESTEROL (96 h, time 4 day) was 90 mg/dL. For the same compound, the “CREATINE PHOSPHOKINASE” value (96 h, time 4 day) was 852 u/L, the CREATININE (96 h, time 4 day) was 0.4 mg/dL and the GLUCOSE (96 h, time 4 day) was 175.33 mg/dL. The “LACTATE DEHYDROGENASE” value (96 h, time 4 day) was 320.67 u/L, the LIPASE (96 h, time 4 day) was 11 u/L and the PHOSPHORUS (96 h, time 4 day) was 12.03 mg/dL. The POTASSIUM (96 h, time 4 day) was 6.37 MEQ/L, the SODIUM (96 h, time 4 day) was 147 MEQ/L and the “TOTAL BILIRUBIN” value (96 h, time 4 day) was 0.4 mg/dL. For the same compound, the “TOTAL PROTEIN” value (96 h, time 4 day) was 6.07 G/DL, the “URIC ACID” value (96 h, time 4 day) was 1.5 mg/dL and the BASOPHIL ([…], time 6 day) was 0.2%. The EOSINOPHIL ([…], time 6 day) was 0.4%, the “ERYTHROCYTE COUNT” value ([…], time 6 day) was 6.89 x10E6/uL and the HEMATOCRIT ([…], time 6 day) was 50%. The HEMOGLOBIN ([…], time 6 day) was 14.85 G/DL, the “LEUKOCYTE COUNT” value ([…], time 6 day) was 11.06 x10E3/uL and the LYMPHOCYTE ([…], time 6 day) was 89%. For the same compound, the “MEAN CORPUSCULAR HEMOGLOBIN” value ([…], time 6 day) was 21.5 pg, the “MEAN CORPUSCULAR HEMOGLOBIN CONCENTRATION” value ([…], time 6 day) was 29.65 G/DL and the “MEAN CORPUSCULAR VOLUME” value ([…], time 6 day) was 72.6 fL. The MONOCYTE ([…], time 6 day) was 0.95%, the NEUTROPHIL ([…], time 6 day) was 9% and the “PLATELET COUNT” value ([…], time 6 day) was 1574 x10E3/uL. The BASOPHIL ([…], time 14 day) was 0.68%, the EOSINOPHIL ([…], time 14 day) was 0.52% and the “ERYTHROCYTE COUNT” value ([…], time 14 day) was 7.67 x10E6/uL. For the same compound, the HEMATOCRIT ([…], time 14 day) was 48.12%, the HEMOGLOBIN ([…], time 14 day) was 15.24 G/DL and the “LEUKOCYTE COUNT” value ([…], time 14 day) was 10.23 x10E3/uL. For the same compound, the LYMPHOCYTE ([…], time 14 day) was 81.12%, the “MEAN CORPUSCULAR HEMOGLOBIN” value ([…], time 14 day) was 19.9 pg and the “MEAN CORPUSCULAR HEMOGLOBIN CONCENTRATION” value ([…], time 14 day) was 31.7 G/DL. The “MEAN CORPUSCULAR VOLUME” value ([…], time 14 day) was 62.76 fL, the MONOCYTE ([…], time 14 day) was 2.12% and the NEUTROPHIL ([…], time 14 day) was 14.52%. For the same compound, the “PLATELET COUNT” value ([…], time 14 day) was 1133.4 x10E3/uL, the “ALANINE AMINOTRANSFERASE” value ([…], time 6 day) was 39 u/L and the ALBUMIN ([…], time 6 day) was 4.2 G/DL. For the same compound, the “ALKALINE PHOSPHATASE” value ([…], time 6 day) was 351.67 u/L, the “ASPARTATE AMINOTRANSFERASE” value ([…], time 6 day) was 89 u/L and the “BLOOD UREA NITROGEN” value ([…], time 6 day) was 16.67 mg/dL. The “CARBON DIOXIDE” value ([…], time 6 day) was 29.33 mmol/L, the CHLORIDE ([…], time 6 day) was 106 MEQ/L and the CHOLESTEROL ([…], time 6 day) was 68 mg/dL. The “CREATINE PHOSPHOKINASE” value ([…], time 6 day) was 701.67 u/L, the CREATININE ([…], time 6 day) was 0.6 mg/dL and the GLUCOSE ([…], time 6 day) was 151.33 mg/dL. The “LACTATE DEHYDROGENASE” value ([…], time 6 day) was 127 u/L, the LIPASE ([…], time 6 day) was 10.67 u/L and the PHOSPHORUS ([…], time 6 day) was 11.57 mg/dL. The POTASSIUM ([…], time 6 day) was 6.27 MEQ/L, the SODIUM ([…], time 6 day) was 149.33 MEQ/L and the “TOTAL BILIRUBIN” value ([…], time 6 day) was 0.33 mg/dL. The “TOTAL PROTEIN” value ([…], time 6 day) was 6.5 G/DL, the “URIC ACID” value ([…], time 6 day) was 1.4 mg/dL and the “ALANINE AMINOTRANSFERASE” value ([…], time 14 day) was 40.6 u/L. The ALBUMIN ([…], time 14 day) was 4.04 G/DL, the “ALKALINE PHOSPHATASE” value ([…], time 14 day) was 340.4 u/L and the “ASPARTATE AMINOTRANSFERASE” value ([…], time 14 day) was 91.2 u/L. For the same compound, the “BLOOD UREA NITROGEN” value ([…], time 14 day) was 18.2 mg/dL, the “CARBON DIOXIDE” value ([…], time 14 day) was 28.6 mmol/L and the CHLORIDE ([…], time 14 day) was 105.6 MEQ/L. The CHOLESTEROL ([…], time 14 day) was 66.6 mg/dL, the “CREATINE PHOSPHOKINASE” value ([…], time 14 day) was 631.6 u/L and the CREATININE ([…], time 14 day) was 0.56 mg/dL. For the same compound, the GLUCOSE ([…], time 14 day) was 157.4 mg/dL, the “LACTATE DEHYDROGENASE” value ([…], time 14 day) was 226.6 u/L and the LIPASE ([…], time 14 day) was 13.6 u/L. It also gave a PHOSPHORUS ([…], time 14 day) of 12.16 mg/dL, a POTASSIUM ([…], time 14 day) of 6.96 MEQ/L and an SODIUM ([…], time 14 day) of 149.8 MEQ/L. For the same compound, the “TOTAL BILIRUBIN” value ([…], time 14 day) was 0.38 mg/dL, the “TOTAL PROTEIN” value ([…], time 14 day) was 6.12 G/DL and the “URIC ACID” value ([…], time 14 day) was 1.8 mg/dL.
